# Source: patent publication US20170368082A1, “FORMULATIONS OF BRINCIDOFOVIR” (priority 2016, published 2017)
# Assay: Tissue distribution by quantitative whole-body autoradiography (QWBA)
# Type: in vivo, male Sprague Dawley and Long-Evans rats
# Conditions: for AUCall Ratio (PO/IV) / Cmax Ratio (PO/IV): 15 mg/kg, Group 7 vs Group 4
# Method: The study utilized 4 groups of male SD rats (albino), and 3 groups of male LE rats (pigmented); a total of 39 rats. All animals were obtained from Hilltop Lab Animals, Inc. (Scottdale, Pa.). […] Rats in Group 5 were administered a single 2-h IV infusion of [^14C]brincidofovir at a target dose of 2 mg/kg. […] Three dosing formulations (one for high dose IV, one for low dose IV, and one for PO dose) were prepared at QPS on the day of dosing. The IV formulation for Groups 1, 2, 3, and 4 contained a vehicle of 10 mM sodium phosphate buffer in 5% dextrose solution at pH 8.0(±0.1).
# Each animal, at their respective termination time points, was euthanized for QWBA analysis immediately after blood collection. One rat per time point per Group was euthanized as listed below.
# The blood samples were maintained on wet ice (approximately 4° C.) and then centrifuged to obtain plasma within 1 h of the blood collection time. Centrifuge settings were recorded in the study notebook. Duplicate aliquots of plasma (0.050 mL) were analyzed for radioactivity using direct counting by LSC, and residual plasma was stored at approximately −70° C. and was saved for possible future analysis under a separate study protocol. Residual red blood cells were discarded as radioactive waste.
# The pinna, distal limbs, hair, and tail were removed from each frozen carcass and each frozen carcass was embedded in an aqueous suspension of approximately 2% (w/v) carboxymethylcellulose and frozen into a block. The blocks were stored at approximately −20° C. prior to sectioning. Each blocked carcass was mounted on the object stage of a cryomicrotome (Leica CM3600 Cryomacrocut, Nussloch, Germany and Vibratome 9800, St. Louis, Mo.) maintained at approximately −20° C. and internal standards (3), which were plasma fortified with [^14C]-glucose at one concentration (approximately 0.05 μCi/mL), were placed into the frozen blocks, prior to sectioning, and were used for section thickness quality control. A number of whole-body sections (approximately 40 μm thick) were taken in the sagittal plane at various levels of interest using a whole-body cryomicrotome set at −20° C. Sagittal sections (20-50 μm thick) of frozen carcasses were exposed to phosphor imaging plates. Regions of images in tissues were converted to concentrations using standards. All of the major tissues, organs, and biological fluids were represented.
# Tissue concentration data was determined for the following tissues and/or contents: adipose (brown and white), adrenal gland, bile (in duct), blood (cardiac), bone, bone marrow, brain (cerebrum, cerebellum, medulla), cecum (and contents), large intestine (and contents), epididymis, esophagus, eye (uvea and lens), Harderian gland, heart, kidney (cortex and medulla), liver, lung, lymph node, pancreas, pituitary gland, prostate gland, salivary gland, seminal vesicles, skeletal muscle, skin (pigmented and non-pigmented), small intestine (and contents), stomach (gastric mucosa and contents), spleen, spinal cord, testis, thymus, thyroid, and urinary bladder (and contents).
# The imaging plate and sections were placed in light-tight exposure cassettes, in a copper-lined lead safe, for a 4-day exposure at room temperature. […] Quantification was performed by image densitometry using MCD image analysis software (v. 7.0, Interfocus Imaging Ltd) and a standard curve constructed from the integrated response [i.e., Molecular Dynamics Counts per square millimeter (MDC/mm^2)] and the nominal concentrations of the ^14C-calibration standards. The concentrations of radioactivity were expressed as the μg equivalents of [^14C]brincidofovir per gram sample (μg equiv/g). A lower limit of quantification (LLOQ) was applied to the data (See section 6.7.4).
# Tissue concentrations that fell below the LLOQ were identified as being below the quantification limit (BQL). Tissue areas that were not visualized on autoradiographic images were identified as no sample (NS) and reported as BQL.
smiles,measurement,setting,value
CCCCCCCCCCCCCCCCOCCCOP(=O)(O)CO[C@H](CO)Cn1ccc(N)nc1=O [[^14C] brincidofovir],AUCall,"Cecum, 2 h IV infusion 15 mg/kg, Group 4",360.7580 μg equiv · h/g
same,Tissue Concentration (168 h),"Cecum, 2 h IV infusion 15 mg/kg, Group 4, LLOQ 0.036",0.08 μg equiv/g
same,Tissue Concentration (168 h),"Cecum, PO 15 mg/kg, Group 7, LLOQ 0.034",0.137 μg equiv/g
same,AUCall,"Cecum, PO 15 mg/kg, Group 7",174.4118 μg equiv · h/g
same,AUCall Ratio (PO/IV),Epididymis,0.33
same,Cmax Ratio (PO/IV),Epididymis,0.16
same,AUCall,"Epididymis, 2 h IV infusion 15 mg/kg, Group 4",95.0160 μg equiv · h/g
same,Tissue Concentration (168 h),"Epididymis, 2 h IV infusion 15 mg/kg, Group 4, LLOQ 0.036",0.129 μg equiv/g
same,Tissue Concentration (168 h),"Epididymis, PO 15 mg/kg, Group 7, LLOQ 0.034",0.042 μg equiv/g
same,AUCall,"Epididymis, PO 15 mg/kg, Group 7",31.1150 μg equiv · h/g
same,AUCall Ratio (PO/IV),Esophagus,0.38
same,Cmax Ratio (PO/IV),Esophagus,1.89
same,AUCall,"Esophagus, 2 h IV infusion 15 mg/kg, Group 4",73.1850 μg equiv · h/g
same,Tissue Concentration (168 h),"Esophagus, 2 h IV infusion 15 mg/kg, Group 4, LLOQ 0.036",0.041 μg equiv/g
same,Tissue Concentration (168 h),"Esophagus, PO 15 mg/kg, Group 7, LLOQ 0.034",BQL
same,AUCall,"Esophagus, PO 15 mg/kg, Group 7",27.9015 μg equiv · h/g
same,AUCall,"Eye (lens), 2 h IV infusion 15 mg/kg, Group 4",0.1545 μg equiv · h/g
same,Tissue Concentration (168 h),"Eye (lens), 2 h IV infusion 15 mg/kg, Group 4, LLOQ 0.036",BQL
same,Tissue Concentration (168 h),"Eye (lens), PO 15 mg/kg, Group 7, LLOQ 0.034",BQL
same,AUCall Ratio (PO/IV),Eye (uveal tract),0.32
same,Cmax Ratio (PO/IV),Eye (uveal tract),0.43
same,AUCall,"Eye (uveal tract), 2 h IV infusion 15 mg/kg, Group 4",51.5575 μg equiv · h/g
same,Tissue Concentration (168 h),"Eye (uveal tract), 2 h IV infusion 15 mg/kg, Group 4, LLOQ 0.036",BQL
same,Tissue Concentration (168 h),"Eye (uveal tract), PO 15 mg/kg, Group 7, LLOQ 0.034",BQL
same,AUCall,"Eye (uveal tract), PO 15 mg/kg, Group 7",16.2765 μg equiv · h/g
same,AUCall Ratio (PO/IV),Harderian Gland,0.25
same,Cmax Ratio (PO/IV),Harderian Gland,0.12
same,AUCall,"Harderian Gland, 2 h IV infusion 15 mg/kg, Group 4",257.6905 μg equiv · h/g
same,Tissue Concentration (168 h),"Harderian Gland, 2 h IV infusion 15 mg/kg, Group 4, LLOQ 0.036",0.403 μg equiv/g
same,Tissue Concentration (168 h),"Harderian Gland, PO 15 mg/kg, Group 7, LLOQ 0.034",0.11 μg equiv/g
same,AUCall,"Harderian Gland, PO 15 mg/kg, Group 7",63.7645 μg equiv · h/g
same,AUCall Ratio (PO/IV),Heart,0.54
same,Cmax Ratio (PO/IV),Heart,0.15
same,AUCall,"Heart, 2 h IV infusion 15 mg/kg, Group 4",58.1205 μg equiv · h/g
same,Tissue Concentration (168 h),"Heart, 2 h IV infusion 15 mg/kg, Group 4, LLOQ 0.036",0.062 μg equiv/g
same,Tissue Concentration (168 h),"Heart, PO 15 mg/kg, Group 7, LLOQ 0.034",0.045 μg equiv/g
same,AUCall,"Heart, PO 15 mg/kg, Group 7",31.1603 μg equiv · h/g
same,AUCall Ratio (PO/IV),Kidney Cortex,0.42
same,Cmax Ratio (PO/IV),Kidney Cortex,0.18
same,AUCall,"Kidney Cortex, 2 h IV infusion 15 mg/kg, Group 4",1919.6850 μg equiv · h/g
same,Tissue Concentration (168 h),"Kidney Cortex, 2 h IV infusion 15 mg/kg, Group 4, LLOQ 0.036",0.33 μg equiv/g
same,Tissue Concentration (168 h),"Kidney Cortex, PO 15 mg/kg, Group 7, LLOQ 0.034",0.342 μg equiv/g
same,AUCall,"Kidney Cortex, PO 15 mg/kg, Group 7",804.4980 μg equiv · h/g
same,AUCall Ratio (PO/IV),Kidney Medulla,0.48
same,Cmax Ratio (PO/IV),Kidney Medulla,0.34
same,AUCall,"Kidney Medulla, 2 h IV infusion 15 mg/kg, Group 4",717.8445 μg equiv · h/g
same,Tissue Concentration (168 h),"Kidney Medulla, 2 h IV infusion 15 mg/kg, Group 4, LLOQ 0.036",0.138 μg equiv/g
same,Tissue Concentration (168 h),"Kidney Medulla, PO 15 mg/kg, Group 7, LLOQ 0.034",0.201 μg equiv/g
same,AUCall,"Kidney Medulla, PO 15 mg/kg, Group 7",342.0130 μg equiv · h/g
same,AUCall Ratio (PO/IV),Large Intestine,0.45
same,Cmax Ratio (PO/IV),Large Intestine,0.61
same,AUCall,"Large Intestine, 2 h IV infusion 15 mg/kg, Group 4",310.7965 μg equiv · h/g
same,Tissue Concentration (168 h),"Large Intestine, 2 h IV infusion 15 mg/kg, Group 4, LLOQ 0.036",0.103 μg equiv/g
same,Tissue Concentration (168 h),"Large Intestine, PO 15 mg/kg, Group 7, LLOQ 0.034",0.06 μg equiv/g
same,AUCall,"Large Intestine, PO 15 mg/kg, Group 7",140.3313 μg equiv · h/g
same,AUCall Ratio (PO/IV),Liver,0.66
